Assays:
[1] = tested on: Human immunodeficiency virus 1; assay: Dose required to inhibit cytopathic effect of human immunodeficiency virus replication in MT-4 cells.; format: functional; settings: Human immunodeficiency virus 1, MT4; read-out: ED50 (the source's name)
MT4 [2] = assay: Cytotoxic dose required to reduce the viability of normal uninfected MT-4 cells.; format: functional; settings: Homo sapiens, read-out: CD50 (the source's name)
MT4 [3] = assay: Ratio of CD50 to ED50 rvaluated for inhibition of HIV replication in MT-4 cells; format: functional
[4] = Ratio of CD50 to ED50 evaluated for inhibition of HIV replication in MT-4 cells; format: functional, MT4

Nc1nc(N)c2ncn(C3CC(F)C(CO)O3)c2n1 (stereo not given)
EC50 [1]: 4.5 µM | CC50 (MT4 [2]): 360 µM | Selectivity index (MT4 [3]): 80

Nc1ncnc2c1ncn2C1OC(CO)CC1Br (stereo not given)
EC50 [1]: > 500 µM | CC50 (MT4 [2]): > 500 µM

Nc1ncnc2c1ncn2[C@@H]1O[C@H](CO)C[C@H]1O [CORDYCEPIN]
EC50 [1]: > 50 µM | CC50 (MT4 [2]): 45 µM | Selectivity index (MT4 [3]): <0.5

Cc1cn([C@H]2C[C@H](OC(=S)Oc3ccccc3)[C@@H](CO)O2)c(=O)[nH]c1=O
EC50 [1]: > 250 µM | CC50 (MT4 [2]): > 250 µM

Nc1ncnc2c1ncn2[C@@H]1O[C@H](CO)[C@@H]2O[C@@H]21
EC50 [1]: > 100 µM | CC50 (MT4 [2]): > 100 µM

[N-]=[N+]=N[C@H]1C[C@H](n2ccc(=O)[nH]c2=O)O[C@@H]1CO [NAVURIDINE]
EC50 [1]: 0.36 µM | CC50 (MT4 [2]): 244 µM | Selectivity index (MT4 [3]): 677

Nc1nc(N)c2ncn([C@H]3C[C@H](O)[C@@H](CO)O3)c2n1
EC50 [1]: > 125 µM | CC50 (MT4 [2]): > 625 µM

Nc1ncnc2c1ncn2[C@H]1C[C@H](O)[C@@H](CO)O1 [DEOXYADENOSINE]
EC50 [1]: > 100 µM | CC50 (MT4 [2]): > 100 µM

Cc1cn([C@H]2C[C@H](N=[N+]=[N-])[C@@H](CO)O2)c(=O)nc1N
EC50 [1]: 1.8 µM | CC50 (MT4 [2]): > 1000 µM | Selectivity index (MT4 [3]): 555

Cc1cn([C@H]2C[C@H](F)[C@@H](CO)O2)c(=O)[nH]c1=O [ALOVUDINE]
EC50 [1]: 0.001 µM | CC50 (MT4 [2]): 0.197 µM | Selectivity index (MT4 [3]): 197

Nc1ncnc2c1ncn2C1OC(CO)CC1Cl (stereo not given)
EC50 [1]: > 500 µM | CC50 (MT4 [2]): > 500 µM

CC(=O)SC1CC(n2cc(C)c(=O)[nH]c2=O)OC1CO (stereo not given)
EC50 [1]: 27 µM | CC50 (MT4 [2]): 29 µM | Selectivity index (MT4 [3]): 1.1

Cc1ccc(SC2CC(n3cc(C)c(=O)[nH]c3=O)OC2CO)cc1 (stereo not given)
EC50 [1]: > 100 µM | CC50 (MT4 [2]): 116 µM | Selectivity index (MT4 [3]): <1.2

[N-]=[N+]=N[C@H]1C[C@H](n2ccc(N)nc2=O)O[C@@H]1CO
EC50 [1]: 3.1 µM | CC50 (MT4 [2]): 34.1 µM | Selectivity index (MT4 [3]): 11

C#CC1C(CO)OC(n2cc(C)c(=O)[nH]c2=O)C1O (stereo not given)
EC50 [1]: > 500 µM | CC50 (MT4 [2]): > 500 µM

Cc1cn([C@H]2C[C@H](SS[C@H]3C[C@H](n4cc(C)c(O)nc4=O)O[C@@H]3CO)[C@@H](CO)O2)c(=O)nc1O
EC50 [1]: 16 µM | CC50 (MT4 [2]): 34 µM | Selectivity index (MT4 [3]): 2.1

O=c1ccn([C@H]2C[C@H](F)[C@@H](CO)O2)c(=O)[nH]1
EC50 [1]: 0.04 µM | CC50 (MT4 [2]): 16 µM | Selectivity index (MT4 [3]): 400

Nc1ncnc2c1ncn2[C@@H]1O[C@H](CO)C[C@@H]1O
EC50 [1]: > 500 µM | CC50 (MT4 [2]): > 500 µM

Nc1nc(O)c2ncn(C3C=CC(CO)O3)c2n1 (stereo not given)
EC50 [1]: > 5 µM | CC50 (MT4 [2]): 11 µM | Selectivity index [4]: >2.2

CNc1ccn(C2CC(N=[N+]=[N-])C(CO)O2)c(=O)n1 (stereo not given)
EC50 [1]: 605 µM | CC50 (MT4 [2]): > 1000 µM | Selectivity index (MT4 [3]): >1.6

Cc1cn([C@H]2C[C@H](N=[N+]=[N-])[C@@H](CO)O2)c(=O)[nH]c1=O [ZIDOVUDINE]
EC50 [1]: 0.004 µM | CC50 (MT4 [2]): 20 µM | Selectivity index (MT4 [3]): 5000

Nc1nc(O)c2ncn(C3CC(F)C(CO)O3)c2n1 (stereo not given)
EC50 [1]: 2.4 µM | CC50 (MT4 [2]): 237 µM | Selectivity index [4]: 96

CC1=CN(C2CC(N=[N+]=[N-])C(CO)O2)CN=C1NO (stereo not given)
EC50 [1]: 1.5 µM | CC50 (MT4 [2]): 92 µM | Selectivity index (MT4 [3]): 61

Nc1ncnc2c1ncn2[C@@H]1O[C@H](CO)[C@H]2O[C@H]21
EC50 [1]: > 500 µM | CC50 (MT4 [2]): > 500 µM

Nc1nc(O)c2ncn([C@H]3C[C@H](O)[C@@H](CO)O3)c2n1 [DEOXYGUANOSINE]
EC50 [1]: 158 µM | CC50 (MT4 [2]): > 500 µM | Selectivity index [4]: 3.1

CNc1nc(=O)n(C2CC(N=[N+]=[N-])C(CO)O2)cc1C (stereo not given)
EC50 [1]: 17.3 µM | CC50 (MT4 [2]): > 1000 µM | Selectivity index (MT4 [3]): >58

Cc1cn(C2OC(CO)C(C#N)C2O)c(=O)[nH]c1=O (stereo not given)
EC50 [1]: > 500 µM

Reference: ChEMBL document CHEMBL1124230, “Synthesis and anti-HIV activity of different sugar-modified pyrimidine and purine nucleosides” (1988)
